From patent US20260124192A1, “COMPOUNDS, COMPOSITIONS, AND METHODS OF TREATING RNA VIRAL INFECTIONS” (priority 2024, published 2026)

Assay: in vitro
Details: human

Cc1c(-c2ccc(O)cc2)n(Cc2ccc(OCCN3CCCCC3)cc2)c2ccc(O)cc12 [Pipendoxifene]
CC50: 1 µM
